Data set [1] in a line: Inhibition constant against Mandelate racemase from Pseudomonas putida at pH 6.3.
For data set [2], the target named is T1, Mandelate racemase (Pseudomonas putida, UniProt P11444).
T1 sequence (P11444 whole entry): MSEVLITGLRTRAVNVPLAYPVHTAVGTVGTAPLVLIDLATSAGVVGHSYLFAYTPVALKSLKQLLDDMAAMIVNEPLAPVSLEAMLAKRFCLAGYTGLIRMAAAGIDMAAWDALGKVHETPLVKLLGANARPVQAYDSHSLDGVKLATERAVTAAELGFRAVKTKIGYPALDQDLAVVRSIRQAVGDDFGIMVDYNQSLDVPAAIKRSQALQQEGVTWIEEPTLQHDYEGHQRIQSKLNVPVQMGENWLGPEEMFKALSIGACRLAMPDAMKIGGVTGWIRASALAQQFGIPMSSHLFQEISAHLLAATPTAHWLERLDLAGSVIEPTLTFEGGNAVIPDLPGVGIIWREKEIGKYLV
Put plainly: Inhibition constant against Mandelate racemase from Pseudomonas putida at pH 7.5.

A short description of data set [3]: pKa2 (Dissociation constant) value (phosphonate group) was determined. Conditions: read-out: pKa2. Type of data set: physicochemical.
Data set [4] is described as follows: Inhibition constant against mandelate racemase from Pseudomonas putida at pH 6.3.

Consider `O=P(O)(O)[C@H](F)c1ccccc1`, for which the Ki in data set [1] was 87 µM; in data set [2], 530 µM.

Consider `O=P(O)(O)Cc1ccccc1` [BENZYLPHOSPHONIC ACID], for which the Ki in data set [2] turned out to be 3600 µM.

As for `O=P(O)(O)[C@@H](O)c1ccccc1`, in data set [3], the pKa was 6.89. The compound further yielded a Ki in data set [2] of 34 µM.

In the case of `O=P(O)(O)[C@H](O)c1ccccc1`, the pKa in data set [3] was found to be 6.89. Moreover, in data set [2], the inhibitory constant (Ki) was found to be 1.1 µM.

In data set [2], `O=P(O)(O)[C@@H](F)c1ccccc1` showed a Ki of 1110 µM.

Regarding `O=P(O)(O)C(F)(F)c1ccccc1`, the results for the Ki in data set [2] and in data set [4] were 12000 µM and 1000 µM, respectively.

Turning to `O=P(O)(O)C(O)c1ccccc1` (racemic) [ALPHA HYDROXY BENZYLPHOSPHONATE], the pKa in data set [3] came to 6.89. Moreover, the affinity in data set [2] corresponds to a Ki of 4.7 µM.

On to `O=C(c1ccccc1)P(=O)(O)O` [BENZOYLPHOSPHONATE], for which the pKa in data set [3] stood at 5.46. This compound registered a Ki in data set [2] of 300 µM.

Turning to `O=P(O)(O)C(F)c1ccccc1` (racemic), in data set [2], the inhibition constant Ki is 810 µM.

A word on the Ki: it is the equilibrium dissociation constant of an inhibitor or competing ligand from its target. Higher therefore signals lower affinity.

Source of the values: ChEMBL document CHEMBL1144964, “Inhibition of mandelate racemase by alpha-fluorobenzylphosphonates” (Bioorg Med Chem Lett, 2003).
